# Assay results published in PubChem BioAssay (NCI).
# Where “and” joins values, the source holds several entries; their conditions need not be identical. Identical values can stand only once.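 All cell lines were grown in 96-well plates and treated with compound for 48 hours. Here, GI50 denotes the concentration required for 50% inhibition of growth. At the TGI there is no net growth.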
# Legend:
# Assay in all cases: inhibition of tumour cell growth, NCI panel, 48 h
# HCC-2998 colon = tested on: HCC-2998 colon
# HOP-62 NSCLC = tested on: HOP-62 NSCLC
# IGROV1 ovarian = tested on: IGROV1 ovarian
# K-562 leukemia = tested on: K-562 leukemia
# LOX IMVI melanoma = tested on: LOX IMVI melanoma
# OVCAR-4 ovarian = tested on: OVCAR-4 ovarian
# SF-539 CNS = tested on: SF-539 CNS
# SK-MEL-2 melanoma = tested on: SK-MEL-2 melanoma
# UACC-257 melanoma = tested on: UACC-257 melanoma
# NCI/ADR-RES ovarian = tested on: NCI/ADR-RES ovarian
SMILES,TGI (HCC-2998 colon) [µM],TGI (HOP-62 NSCLC) [µM],TGI (IGROV1 ovarian) [µM],TGI (K-562 leukemia) [µM],TGI (LOX IMVI melanoma) [µM],TGI (OVCAR-4 ovarian) [µM],TGI (SF-539 CNS) [µM],TGI (SK-MEL-2 melanoma),TGI (UACC-257 melanoma) [µM],GI50 (LOX IMVI melanoma) [µM],GI50 (NCI/ADR-RES ovarian) [µM],TGI (NCI/ADR-RES ovarian),GI50 (SK-MEL-2 melanoma) [µM],GI50 (HCC-2998 colon) [µM],GI50 (HOP-62 NSCLC),GI50 (IGROV1 ovarian) [µM],GI50 (K-562 leukemia) [µM],GI50 (OVCAR-4 ovarian) [µM],GI50 (SF-539 CNS) [µM],GI50 (UACC-257 melanoma) [µM]
CCOc1ccc(N=C2NC(=O)C(CC(=O)Nc3ccc(Cl)cc3Cl)S2)cc1 (centres undefined),> 100,> 100,> 100,> 100,> 100,> 100,> 100,> 100 µM,> 100,,,,,,,,,,,
Nc1cc2c(c3ccccc13)C(CCl)CN2C(=O)c1cc2cc(NC(=O)c3cc4ccccc4o3)ccc2[nH]1 (centres undefined),0.675,< 0.11,,,256,,,0.0109 µM and < 0.11 µM,,> 0.11,> 0.11,0.0078 µM and < 0.11 µM,> 0.11,,,,,,,
O=[N+]([O-])c1cccc(C=NC23CC4CC(CC(C4)C2)C3)c1,> 100,> 100,> 100,> 100,> 100,> 100,> 100,> 100 µM,> 100,,,,,,,,,,,
CNC(=O)N(CCCC(NC(C)=O)C(=O)NCc1ccccc1)Cc1ccccc1 (centres undefined),> 100,> 100,> 100,> 100,> 100,> 100,> 100,> 100 µM,> 100,,,,,,,,,,,
COC(=O)CCC(=O)C(CC(=O)OC)C(=O)CCC(=O)NCCc1ccccc1 (centres undefined),> 100,> 100,> 100,> 100,> 100,> 100,> 100,> 100 µM,> 100,,,,,,,,,,,
c1ccc2c(CNCCCN3CCN(CCCNCc4cccc5ccccc45)CC3)cccc2c1,,34.4,10.1,,2.67,5,3.01,3.02 µM,3.34,,,,,,,,,,,
Fc1ccc(-c2nn3c(COc4ccccc4Cl)nnc3s2)cc1Oc1ccccc1,77.4,40.1,> 100,> 100,51.9,> 100,92.1,,> 100,22.3,26.6,76.5 µM,,28.6,19.4 µM,31,> 100,72.2,32.2,> 100
Cc1ccc(NC(=O)CC2SC(=Nc3cccc(Cl)c3C)NC2=O)cc1 (centres undefined),> 100,> 100,> 100,> 100,> 100,> 100,> 100,> 100 µM,> 100,,,,,,,,,,,
N#CCC(=O)N/N=C(/C(=O)Nc1ccccc1)C1C(=O)N(c2ccccc2)N=C1N (centres undefined),> 100,> 100,> 100,> 100,> 100,> 100,> 100,> 100 µM,> 100,,,,,,,,,,,
O=C(O)c1ccc(NCn2nc(-c3ccccc3O)oc2=S)cc1O,> 100,> 100,> 100,> 100,> 100,,,> 100 µM,> 100,25.4,> 100,> 100 µM,46.8,> 100,> 100 µM,> 100,> 100,,,> 100
CN(CC(=O)O)S(=O)(=O)c1ccc(Cl)cc1,> 100,,> 100,> 100,> 100,> 100,> 100,> 100 µM,> 100,,,,,,,,,,,
Cc1ccc(S(=O)OC2c3ccccc3Cc3ccccc32)cc1 (centres undefined),33.8,34.3,45.6,62.1,28.8,33.2,40.2,,34.9,,,,,,,,,,,
Cc1cc2c(=O)cc(-c3ccc(O)cc3)oc2c(C(=O)O)c1C,> 100,> 100,> 100,> 100,> 100,> 100,> 100,> 100 µM,> 100,,,,,,,,,,,
CC(=O)OC1C(COC(N)=O)OC(n2c(-c3ccc(C)cc3)cc(-c3ccccc3)c(C#N)c2=O)C(OC(C)=O)C1OC(C)=O (centres undefined),> 100,> 100,> 100,> 100,> 100,> 100,> 100,> 100 µM,> 100,,,,,,,,,,,
S=C1NC(c2ccccc2)=NC(Cc2ccccc2)(c2ccccc2)N1c1ccccc1 (centres undefined),> 100,> 100,> 100,> 100,> 100,> 100,> 100,,> 100,,,,,,,,,,,
CCOC(=O)c1sc(Nc2cc(Cl)ccc2Cl)nc1C,> 100,> 100,> 100,> 100,> 100,> 100,> 100,> 100 µM,> 100,,,,,,,,,,,
CO[C@@H]1[C@H](N(C)C(=O)c2ccccc2)C[C@@H]2O[C@]1(C)n1c3ccccc3c3c4c(c5c6ccccc6n2c5c31)C(=O)NC4=O,> 100,> 100,> 100,> 100,> 100,> 100,59.8,,> 100,0.654,5.75,> 100 µM,,> 100,0.382 µM,0.523,11.1,0.7,1.08,> 100
OCC(O)COc1ccc(F)cc1 (centres undefined),> 100,> 100,> 100,> 100,> 100,> 100,> 100,> 100 µM,> 100,,,,,,,,,,,
Cc1ccc(C)c(N2C(=O)C(=O)C(c3nc4ccccc4s3)C(=O)C2=O)c1,> 100,> 100,> 100,> 100,> 100,> 100,> 100,> 100 µM,> 100,,,,,,,,,,,
CC(=O)NS(=O)(=O)c1ccc(-n2nc(-c3ccccc3)cc2-c2cc(O)ccc2O)cc1,,> 100,> 100,> 100,> 100,,,> 100 µM,> 100,> 100,> 100,> 100 µM,> 100,,> 100 µM,> 100,> 100,,,> 100
CC(=O)Nc1ccc(S(=O)(=O)N/N=C/c2cc(I)cc([N+](=O)[O-])c2O)cc1,> 100,,> 100,> 100,> 100,> 100,,> 100 µM,> 100,,,,,,,,,,,

SMILES,TGI (HCC-2998 colon) [µM],TGI (HOP-62 NSCLC) [µM],TGI (IGROV1 ovarian) [µM],TGI (K-562 leukemia) [µM],TGI (LOX IMVI melanoma) [µM],TGI (OVCAR-4 ovarian) [µM],TGI (SF-539 CNS) [µM],TGI (SK-MEL-2 melanoma),TGI (UACC-257 melanoma) [µM],GI50 (LOX IMVI melanoma) [µM],GI50 (NCI/ADR-RES ovarian) [µM],TGI (NCI/ADR-RES ovarian),GI50 (SK-MEL-2 melanoma) [µM],GI50 (HCC-2998 colon) [µM],GI50 (HOP-62 NSCLC),GI50 (IGROV1 ovarian) [µM],GI50 (K-562 leukemia) [µM],GI50 (OVCAR-4 ovarian) [µM],GI50 (SF-539 CNS) [µM],GI50 (UACC-257 melanoma) [µM]
OC1CCC(COC(c2ccccc2)(c2ccccc2)c2ccccc2)O1 (centres undefined),35.6,33.9,36.8,41.1,34.3,,32.5,42.6 µM,34.1,,,48.3 µM,,,,,,,,
O=C(Cc1c(C(=O)Nc2ccccc2)sc(C(=O)Nc2ccccc2)c1CC(=O)Nc1ccccc1)Nc1ccccc1,> 100,> 100,> 100,> 100,> 100,> 100,> 100,,> 100,,,,,,,,,,,
C#CCOCCCC(=O)O,,> 100,> 100,> 100,> 100,> 100,> 100,> 100 µM,> 100,,,> 100 µM,,,,,,,,
CCCCN(CCCC)C(=O)C(=O)C(C(=O)C(=O)OC)c1nc2ccccc2o1 (centres undefined),> 100,> 100,> 100,> 100,> 100,> 100,> 100,> 100 µM,> 100,,,,,,,,,,,
Cc1ccccc1C(C#N)/C(=N/NC(N)=S)C(=O)Nc1c(C)cccc1C (centres undefined),> 100,> 100,> 100,,> 100,> 100,,> 100 µM,> 100,,,,,,,,,,,
Cc1cc2c(cc1C)[n+](=O)c(C(=O)CC(=O)C(=O)Nc1ccccc1C)c(C)n2[O-],> 100,> 100,> 100,> 100,> 100,> 100,> 100,> 100 µM,> 100,,,,,,,,,,,
Cn1cnc([N+](=O)[O-])c1Sc1nccn1-c1ccccc1,> 100,> 100,> 100,> 100,46.9,> 100,> 100,99.3 µM,> 100,,,,,,,,,,,
CC[C@H]1[C@@H](C)C=C[C@@H](C)N1S(=O)(=O)c1ccc(C)cc1,,> 100,,> 100,> 100,> 100,> 100,52.9 µM,> 100,,,,,,,,,,,
S=c1sc2sc(=S)sc2s1,> 100,> 100,> 100,> 100,> 100,> 100,57.8,> 100 µM,> 100,,,,,,,,,,,
Cc1cc2c(=O)cc(-c3ccc(C(=O)O)cc3)oc2c(C(N)=O)c1C,> 100,> 100,> 100,> 100,> 100,> 100,> 100,> 100 µM,> 100,,,,,,,,,,,
CC[C@@]1(O)C(=O)OCc2c1cc1n(c2=O)Cc2cc3c(OC)cccc3nc2-1,,,> 100,17.8,1.14,11.9,0.224,2.6 µM,4.25,0.00444,,> 100 µM,,,0.000532 µM and < 0.215 µM,> 100,,,0.00654,0.0646
COC1OC(CO)C(O)C(NC(=O)N(C)N=O)C1O (centres undefined),> 100,,> 100,> 100,,> 100,> 100,> 100 µM,,,,,,,,,,,,
ClCCN(CCCl)c1ccc(OCc2ccccc2)cc1,,30.4,64,> 100,17.4,55.4,7.44,35.4 µM,39.6,3.13,5.44,> 100 µM,13.3,,4.05 µM,7.03,7.02,12,2.03,6.3
CN1C(=O)CNS1(=O)=O,> 100,> 100,> 100,> 100,> 100,,> 100,> 100 µM,> 100,,,,,,,,,,,
Cc1cc2c(=O)cc(-c3ccc(Cl)c(Cl)c3)oc2c(C(=O)O)c1C,,,> 100,> 100,> 100,> 100,> 100,> 100 µM,> 100,,,,,,,,,,,
CCOC(=O)c1c2c(n(Cc3ccccc3)c1C)-c1nc[nH]c1C(=O)C2=O,,33.2,30.6,19.1,28.1,26.3,31.9,32.2 µM,30,14.9,,,17.7,,18.6 µM,16.7,3.08,13.5,17.7,16.4
Cc1cn2c(/C=N/NC3=NCCN3)c(-c3ccc(Cl)c([N+](=O)[O-])c3)nc2s1,> 50,7.17,,2.34,1.6,,1.85,1.81 µM,7.24,0.871,7.75,21.5 µM,0.645,2.12,1.71 µM,,1.08,,0.962,1.6
CC1=CC=C2C(C)(C)CC[C@@H]3OC(=O)[C@H]1[C@]23C,> 100,> 100,> 100,> 100,> 100,> 100,> 100,> 100 µM,> 100,,,,,,,,,,,
O=C(O)COc1ccc2c3c1C(=O)CCC3CO2 (centres undefined),> 100,> 100,> 100,> 100,> 100,> 100,> 100,> 100 µM,> 100,,,,,,,,,,,
O=C1C2=C(c3ccccc31)C(c1ccccc1Cl)NC(=S)N2 (centres undefined),> 100,> 100,> 100,> 100,,> 100,> 100,> 100 µM,> 100,,,,,,,,,,,
C=CCC1=C2CCCCC2CCC1=O (centres undefined),,> 100,> 100,> 100,> 100,> 100,> 100,> 100 µM,> 100,,,,,,,,,,,
